Measured values reported in patent publication US20200288710A1, “SUBSTITUTED SULPHONAMIDES FOR CONTROLLING ANIMAL PESTS” (BAYER CROPSCIENCE AKTIENGESELLSCHAFT, priority 2016, published 2020).
Like-named read-outs stand apart in the source and are kept apart here.

Columns and labels:
[1] = log P by HPLC on reversed-phase column (EEC Directive 79/831 Annex V.A8); type: physicochemical; settings: reversed-phase HPLC column (C18)
Method: The log P values were determined according to EEC Directive 79/831 Annex V.A8 by HPLC (highperformance liquid chromatography) on a reversed-phase column (C18). Temperature 43° C. The calibration is effected with unbranched alkan-2-ones (having 3 to 16 carbon atoms), for which the log P values are known. The determination of the M^+ by LC-MS in the acidic range was carried out at pH 2.7 using the mobile phases 0.1% aqueous formic acid and acetonitrile (contains 0.1% formic acid); linear gradient from 10% acetonitrile to 95% acetonitrile, instrument: Agilent 1100 LC system, Agilent MSD system, HTS PAL. The determination of the M^+ by LC-MS in the neutral range was carried out at pH 7.8 using the mobile phases 0.001 molar aqueous ammonium bicarbonate solution and acetonitrile; linear gradient from 10% acetonitrile to 95% acetonitrile. The log P values for the acidic range (as log P [a]) and/or for the neutral range (as log P [n]) were stated in the tables and preparation examples.

Musca domestica = Musca domestica test; type: in vivo; settings: 48 h, adult houseflies, after 2 days, read-out: efficacy (kill in %)
Method: Musca domestica Test Solvent: dimethyl sulphoxide To produce a suitable preparation of active compound, 10 mg of active compound are mixed with 0.5 ml of dimethyl sulphoxide, and the concentrate is diluted with water to the desired concentration. Vessels containing a sponge treated with sugar solution and the active compound preparation of the desired concentration are populated with 10 adult houseflies (Musca domestica). After 2 days, the kill in % is determined. 100% means that all of the flies have been killed; 0% means that none of the flies have been killed.

Meloidogyne incognita = Meloidogyne incognita test; type: in vivo; settings: 336 h, lettuce, after 14 days, read-out: nematicidal efficacy (formation of galls)
Procedure, shortened: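 Gall formation on lettuce roots scored after 14 days: 0% means gall count equals untreated control, 100% means none. Sand vessels held the compound (acetone concentrate diluted in water), southern root-knot nematode egg/larvae suspension and lettuce seeds.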

Myzus persicae [2] = test: Myzus persicae spray test (Chinese cabbage leaf discs); type: in vivo; settings: foliar, 120 h, 500 g/ha, after 5-6 days, read-out: efficacy
Procedure, shortened: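 Formulated compound in acetone/dimethylformamide, diluted in water with 1000 ppm emulsifier, was sprayed onto Brassica pekinensis leaf discs carrying mixed-stage Myzus persicae. Percent mortality was read 5-6 days later (0% = no aphids killed, 100% = all killed).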

Phaedon cochleariae = Phaedon cochleariae spray test; type: in vivo; settings: foliar, 168 h, Chinese cabbage leaf discs, larvae, after 7 days, read-out: efficacy
Procedure, shortened: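 Mortality of beetle larvae scored at day 7, expressed as % (0% none killed, 100% all). Formulation: compound in solvent, made up and further diluted with emulsifier-containing water (1000 ppm emulsifier).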

Myzus persicae [3] = test: Myzus persicae oral test; type: in vivo; settings: 120 h, oral uptake, after 5 days, read-out: efficacy
Procedure, shortened: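 Aphids of mixed ages imbibe, through parafilm, compound solution (acetone stock, water-diluted) combined with sugar-supplemented IPL41 medium to 200 μl. Efficacy read at day 5 as percent killed, 0% meaning no deaths.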

Tetranychus urticae = Tetranychus urticae spray test, OP-resistant; type: in vivo; settings: foliar, 144 h, bean leaf discs, after 6 days, read-out: efficacy
Method: Tetranychus urticae—Spray Test, OP-Resistant
To produce a suitable preparation of active compound, 1 part by weight of active compound is dissolved using the specified parts by weight of solvent and made up with water containing an emulsifier concentration of 1000 ppm until the desired concentration is attained. To produce further test concentrations, the formulation is diluted with emulsifier-containing water.
Discs of bean leaves (Phaseolus vulgaris) infested with all stages of the greenhouse red spider mite (Tetranychus urticae) are sprayed with an active compound preparation of the desired concentration.
After 6 days, the efficacy in % is determined. 100% means that all the spider mites have been killed; 0% means that no spider mites have been killed.

Lucilia cuprina = Lucilia cuprina test; type: in vivo; settings: 48 h, L1 larvae, after 2 days, read-out: efficacy (kill in %)
Method: Lucilia cuprina Test Solvent: dimethyl sulphoxide To produce a suitable preparation of active compound, 10 mg of active compound are mixed with 0.5 ml of dimethyl sulphoxide, and the concentrate is diluted with water to the desired concentration. About 20 L1 larvae of the Australian sheep blowfly (Lucilia cuprina) are transferred into a test vessel containing minced horsemeat and the active compound preparation of the desired concentration. After 2 days, the kill in % is determined. 100% means that all the larvae have been killed; 0% means that no larvae have been killed.

[4] = neutral range, pH 7.8, HPLC C18, 43° C., read-out: log P (neutral)
[5] = acidic range, pH 2.7, HPLC C18, 43° C., read-out: log P (acidic)

| Compound | chromatographic logP [1, 4] | pest or weed control at 100 ppm (Musca domestica) | pest or weed control at 20 ppm (Meloidogyne incognita) | pest or weed control at 500 g/ha (Myzus persicae [2]) | pest or weed control at 500 g/ha (Phaedon cochleariae) | pest or weed control at 20 ppm (Myzus persicae [3]) | also measured |
| --- | --- | --- | --- | --- | --- | --- | --- |
| CCOC(=O)c1nc(Br)n(C)c1C [Ethyl 2-Bromo-1,5-Dimethyl-1H-Imidazole-4-Carboxylate] | 1.69 | – | – | – | – | – | – |
| Cn1cncc1C(=O)OC(C)(C)C [tert-butyl 1-methyl-1H-imidazole-5-carboxylate] | 1.71 | – | – | – | – | – | – |
| Cn1cc(C(=O)OC(C)(C)C)nc1-c1c(F)cccc1F [tert-butyl 2-(2,6-difluorophenyl)-1-methyl-1H-imidazole-4-carboxylate] | 2.3 | – | – | – | – | – | – |
| Cn1cc(C(=O)NS(=O)(=O)c2ccccc2Br)nc1-c1c(F)cccc1Cl [Example 152] | – | 80% | 100% | 90% | 100% | 100% | – |
| CCOC(=O)c1cc(O)n(-c2ccccc2Cl)n1 [ethyl 1-(2-chlorophenyl)-5-hydroxy-1H-pyrazole-3-carboxylate] | – | – | – | – | – | – | chromatographic logP [1, 5]: 1.75 |
| CCOC(=O)c1nc(-c2c(F)cccc2F)n(C)c1C [ethyl 2-(2,6-difluorophenyl)-1,5-dimethyl-1H-imidazole-4-carboxylate] | 2 | – | – | – | – | – | – |
| Cc1ccc(Cl)cc1S(=O)(=O)NC(=O)c1cn(C)c(-c2c(F)cccc2F)n1 [Example 172] | – | 90% | 100% | 90% | 100% | 100% | – |
| Cn1c(C(=O)O)cnc1-c1c(F)cccc1F [2-(2,6-difluorophenyl)-1-methyl-1H-imidazole-5-carboxylic acid] | – | – | – | – | – | – | chromatographic logP [1, 5]: 0.46 |
| Cn1c(C(=O)OC(C)(C)C)cnc1-c1c(F)cccc1F [tert-butyl 2-(2,6-difluorophenyl)-1-methyl-1H-imidazole-5-carboxylate] | 3 | – | – | – | – | – | – |
| CCc1ccccc1S(=O)(=O)NC(=O)c1cn(C)c(-c2c(F)cccc2F)n1 [Example 185] | – | 80% | 90% | 100% | – | 100% | – |
| Cn1cc(C(=O)NS(=O)(=O)c2c(Cl)cccc2Cl)nc1-c1cccc(Cl)c1Cl [Example 568] | – | – | 90% | 100% | 83% | 100% | pest or weed control at 500 g/ha (Tetranychus urticae): 90% |
| CCc1[nH]c(-c2c(F)cccc2F)nc1C(=O)O [2-(2,6-difluorophenyl)-5-ethyl-1H-imidazole-4-carboxylic acid] | 0.45 | – | – | – | – | – | – |
| COc1ccc(OC)c(S(=O)(=O)NC(=O)c2cn(C)c(-c3c(F)cccc3Cl)n2)c1 [Example 151] | – | 100% | – | 100% | – | – | – |
| CCOC(=O)c1cc(OC)n(-c2ccccc2Cl)n1 [ethyl 1-(2-chlorophenyl)-5-methoxy-1H-pyrazole-3-carboxylate] | – | – | – | – | – | – | chromatographic logP [1, 5]: 2.61 |
| COc1ccc(Cl)c(S(=O)(=O)NC(=O)c2cn(C)c(-c3c(Cl)cccc3Cl)n2)c1 [Example 101] | – | – | 90% | 90% | 100% | 100% | pest or weed control at 100 ppm (Lucilia cuprina): 100%; pest or weed control at 500 g/ha (Tetranychus urticae): 90% |
| CCOC(=O)c1nc(-c2c(F)cccc2F)[nH]c1CC [ethyl 2-(2,6-difluorophenyl)-5-ethyl-1H-imidazole-4-carboxylate] | – | – | – | – | – | – | chromatographic logP [1, 5]: 1.73 |
| Cc1cc(S(=O)(=O)NC(=O)c2cn(C)c(-c3ccccc3Cl)n2)c(C)s1 [Example 217] | – | – | 90% | 90% | 83% | 100% | pest or weed control at 500 g/ha (Tetranychus urticae): 100% |

| Compound | chromatographic logP [1, 4] | pest or weed control at 100 ppm (Musca domestica) | pest or weed control at 20 ppm (Meloidogyne incognita) | pest or weed control at 500 g/ha (Myzus persicae [2]) | pest or weed control at 500 g/ha (Phaedon cochleariae) | pest or weed control at 20 ppm (Myzus persicae [3]) | also measured |
| --- | --- | --- | --- | --- | --- | --- | --- |
| Cn1cc(C(=O)NS(=O)(=O)c2cc(C(F)(F)F)ccc2Cl)nc1-c1ccccc1Cl [Example 52] | – | 80% | 90% | 90% | – | 100% | – |
| Cn1cc(C(=O)OC(C)(C)C)nc1Br [tert-butyl 2-bromo-1-methyl-1H-imidazole-4-carboxylate] | – | – | – | – | – | – | chromatographic logP [1, 5]: 2.41 |
| COc1ccc(F)cc1S(=O)(=O)NC(=O)c1cn(C)c(-c2c(F)cccc2Cl)n1 [Example 155] | – | 80% | – | 90% | – | 100% | – |
| CCc1cccc(C(F)(F)F)c1S(=O)(=O)NC(=O)c1cn(C)c(-c2c(F)cccc2F)n1 [Example 337] | – | 80% | 90% | 90% | 100% | 100% | – |
| COc1ccc(C)c(S(=O)(=O)NC(=O)c2cn(C)c(-c3ncccc3Cl)n2)c1 [Example 582] | – | – | 90% | 100% | 83% | – | pest or weed control at 500 g/ha (Tetranychus urticae): 90%; pest or weed control at 4 ppm (Myzus persicae [3]; 4 ppm): 100% |
| CCOC(=O)c1ncn(C)c1C [ethyl 1,5-dimethyl-1H-imidazole-4-carboxylate] | 0.85 | – | – | – | – | – | – |
| Cc1ccccc1S(=O)(=O)NC(=O)c1cn(C)c(-c2ccccc2F)n1 [Example 32] | – | 80% | 90% | 90% | – | 100% | – |
| Cc1c(C(=O)O)nc(-c2c(F)cccc2F)n1C [2-(2,6-difluorophenyl)-1,5-dimethyl-1H-imidazole-4-carboxylic acid] | 2 | – | – | – | – | – | – |
| Cn1c(C(=O)OC(C)(C)C)cnc1Br [tert-butyl 2-bromo-1-methyl-1H-imidazole-5-carboxylate] | 2.54 | – | – | – | – | – | – |
| COc1ccc(Br)c(S(=O)(=O)NC(=O)c2cn(C)c(-c3c(F)cccc3Cl)n2)c1 [Example 153] | – | 80% | 90% | 100% | 100% | 100% | – |
| Cn1cc(C(=O)NS(=O)(=O)c2ccc(Cl)cc2Cl)nc1-c1c(F)cccc1F [Example 174] | – | 90% | 100% | 100% | 83% | 100% | – |
| Cn1cnc(C(=O)OC(C)(C)C)c1 [tert-butyl 1-methyl-1H-imidazole-4-carboxylate] | – | – | – | – | – | – | chromatographic logP [1, 5]: 0.63 |
| Cc1ccccc1S(=O)(=O)NC(=O)c1nc(-c2ccccc2Cl)n(C)c1Cl [5-chloro-2-(2-chlorophenyl)-1-methyl-N-[(2-methylphenyl)sulphonyl]-1 Himidazole-4-carboxamide] | – | – | – | – | – | – | chromatographic logP [1, 5]: 3.17 |
| Cn1cc(C(=O)O)nc1-c1c(F)cccc1F [2-(2,6-difluorophenyl)-1-methyl-1H-imidazole-4-carboxylic acid] | 2.3 | – | – | – | – | – | – |
| COc1cc(C(=O)O)nn1-c1ccccc1Cl [1-(2-chlorophenyl)-5-methoxy-1H-pyrazole-3-carboxylic acid] | – | – | – | – | – | – | chromatographic logP [1, 5]: 1.63 |
| Cc1c(F)cccc1S(=O)(=O)NC(=O)c1cn(C)c(-c2c(F)cccc2F)n1 [Example 318] | – | – | 90% | 100% | 100% | 100% | pest or weed control at 500 g/ha (Tetranychus urticae): 90% |
